In patent US5328902A, “7-(substituted)-9-[(substituted glycyl)amido]-6-demethyl-6-deoxytetracyclines” (American Cyanamid Co., priority 1992, dated 1994):

Key:
[1] = test system: E. coli BAJ9003 IMP MUT; assay: microbe, parasite or virus in culture; type: cell-based; details: E. coli BAJ9003 IMP MUT
[2] = test system: S. mariescens FPOR 8733; assay: MIC, agar dilution; type: cell-based
[3] = test system: S. aureus UBMS 90-3; assay: MIC, agar dilution; type: cell-based; details: S. aureus UBMS 90-3
[4] = test system: S. aureus IVES 2943; assay: MIC, agar dilution; type: cell-based; details: S. aureus IVES 2943
[5] = test system: Wild Type S30 (wild type ribosomes, E. coli strain MRE600, tetracycline sensitive); assay: E. coli in vitro protein translation system, wild type S30; details: for inhibition of protein synthesis occuring on wild type ribosomes: coupled transcription and translation system
[6] = test system: S. hemolyticus AVHAH 88-3; assay: MIC, agar dilution; type: cell-based; details: S. hemolyticus AVHAH 88-3
[7] = test system: E. coli UBMS 89-2 Tet sens.; assay: MIC, agar dilution; type: cell-based; details: E. coli UBMS 89-2 Tet sens.
[8] = test system: E. coli J3272 Tet sens.; assay: MIC, agar dilution; type: cell-based
[9] = test system: E. coli #311 (MP); assay: MIC, agar dilution; type: cell-based; details: E. coli #311 (MP)
[10] = test system: E. coli J2175; assay: MIC, agar dilution; type: cell-based; details: E. coli J2175
[11] = test system: S. aureus UBMS 90-1 Tet M; assay: microbe, parasite or virus in culture; type: cell-based; details: S. aureus UBMS 90-1 Tet M
[12] = test system: E. coli PRP1 Tet A; assay: microbe, parasite or virus in culture; type: cell-based; details: E. coli PRP1 Tet A
[13] = test system: S. aureus UBMS 88-5 Tet M; assay: microbe, parasite or virus in culture; type: cell-based; details: S. aureus UBMS 88-5 Tet M
[14] = test system: E. faecalis ATCC 29212; assay: MIC, agar dilution; type: cell-based; details: E. faecalis ATCC 29212
[15] = test system: S. aureus UBMS 88-7 Tet K; assay: microbe, parasite or virus in culture; type: cell-based; details: S. aureus UBMS 88-7 Tet K
[16] = test system: E. coli UBMS 90-5; assay: MIC, agar dilution; type: cell-based
[17] = test system: S. aureus ROSE (MP); assay: MIC, agar dilution; type: cell-based; details: S. aureus ROSE (MP)
[18] = test system: E. coli J3272 Tet D; assay: microbe, parasite or virus in culture; type: cell-based; details: E. coli J3272 Tet D
[19] = test system: S. aureus UBMS 88-4; assay: MIC, agar dilution; type: cell-based; details: S. aureus UBMS 88-4
[20] = test system: S. aureus SMITH (MP); assay: MIC, agar dilution; type: cell-based; details: S. aureus SMITH (MP)
[21] = test system: Ps. acruginosa ATCC 27853; assay: MIC, agar dilution; type: cell-based; details: Ps. acruginosa ATCC 27853
[22] = test system: the ribosome; assay: Reversibility of binding: bacterial growth resumes after washing; type: cell-based; details: bacterial growth resumes when the compound is removed from the cultures by washing
From the text: Therefore, the ability of these compounds to inhibit bacterial growth appears to be a direct consequence of its ability to inhibit protein synthesis at the ribosome level.

[23] = test system: E. coli MC 4100 TNIOC Tet B; assay: microbe, parasite or virus in culture; type: cell-based; details: E. coli MC 4100 TNIOC Tet B
[24] = test system: S. aureus IVES 1 983; assay: MIC, agar dilution; type: cell-based; details: S. aureus IVES 1 983
[25] = test system: E. coli UBMS 89-1 Tet M; assay: microbe, parasite or virus in culture; type: cell-based; details: E. coli UBMS 89-1 Tet M
[26] = test system: S. aureus UBMS 90-2 Tet M; assay: microbe, parasite or virus in culture; type: cell-based; details: S. aureus UBMS 90-2 Tet M
[27] = test system: E. coli UBMS 90-4 Tet M; assay: microbe, parasite or virus in culture; type: cell-based; details: E. coli UBMS 90-4 Tet M
[28] = test system: E. coli J3272 Tet C; assay: microbe, parasite or virus in culture; type: cell-based; details: E. coli J3272 Tet C
[29] = test system: S. aureus NEMC 8769; assay: MIC, agar dilution; type: cell-based; details: S. aureus NEMC 8769
[30] = test system: Enterococcus 12201; assay: MIC, agar dilution; type: cell-based; details: Enterococcus 12201
[31] = test system: S. aureus ATCC 29213; assay: MIC, agar dilution; type: cell-based; details: S. aureus ATCC 29213
[32] = test system: E. coli ATCC 25922; assay: MIC, agar dilution; type: cell-based; details: E. coli ATCC 25922
[33] = test system: E. coli UBMS 88-1 Tet B; assay: microbe, parasite or virus in culture; type: cell-based; details: E. coli UBMS 88-1 Tet B; 18 hours at 35° C.

“[4S-(4alpha,12aalpha)]-4,7-Bis(dimethylamino)-1,4,4a,5,5a,6,11,12a-octahydro-3,10, 12,12a-tetrahydroxy-9-[[[(3-methoxypropyl)amino]acetyl]amino]-1,11-dioxo-2-naphthacenecarboxamide dihydrochloride” gave an MIC [1] of 0.12 µg/mL, an MIC [2] of 16 µg/mL and an MIC [3] of 0.5 µg/mL. The MIC [4] was 16 µg/mL, the “% Inhibition Wild Type S30” value ([5]; Conc. 0.06 mg/ml) was 88% and the “inhibition of protein synthesis occuring on wild type ribosomes” value (“inhibition of protein synthesis occuring” for short) [5] was “effectively inhibit protein synthesis”. For the same substance, the MIC [6] was 2 µg/mL, the MIC [7] was 1 µg/mL and the MIC [8] was 1 µg/mL. The MIC [9] was 1 µg/mL, the MIC [10] was 1 µg/mL and the MIC [11] was 2 µg/mL. For the same substance, the MIC [12] was 4 µg/mL, the MIC [13] was 0.5 µg/mL and the MIC [14] was 0.25 µg/mL. The MIC [15] was 8 µg/mL, the MIC [16] was 1 µg/mL and the MIC [17] was 16 µg/mL. It also gave an MIC [18] of 0.5 µg/mL, an MIC [19] of 1 µg/mL and an MIC [20] of 0.5 µg/mL. The MIC [21] was 32 µg/mL, the “reversibility of binding to the ribosome” value [22] was “bind reversibly” and the MIC [23] was 2 µg/mL. The MIC [24] was 16 µg/mL, the MIC [25] was 2 µg/mL and the MIC [26] was 0.5 µg/mL. The MIC [27] was 1 µg/mL, the MIC [28] was 1 µg/mL and the MIC [29] was 0.25 µg/mL. The MIC [30] was 0.5 µg/mL, the MIC [31] was 1 µg/mL and the MIC [32] was 1 µg/mL.
“[4S-(4alpha,12aalpha)]-4,7-Bis(dimethylamino-1,4,4a,5,5a,6,11,12a-octahydro-3,10, 12,12a-tetrahydroxy-9-[[[(2-(methoxyethyl)amino]acetyl]amino]-1,11-dioxo-2-naphthacenecarboxamide dihydrochloride” was tested, and the MIC [2] was greater than 32 µg/mL, the MIC [3] was 0.5 µg/mL and the MIC [4] was 32 µg/mL. The “% Inhibition Wild Type S30” value ([5]; Conc. 0.06 mg/ml) was 92%, the “% Inhibition Wild Type S30” value ([5]; Conc. 1.0 mg/ml) was 98% and the “inhibition of protein synthesis occuring” value [5] was “effectively inhibit protein synthesis”. For the same substance, the MIC [6] was 2 µg/mL, the MIC [7] was 2 µg/mL and the MIC [8] was 2 µg/mL. For the same substance, the MIC [9] was 2 µg/mL, the MIC [10] was 2 µg/mL and the MIC [11] was 2 µg/mL. It also gave an MIC [12] of 8 µg/mL, an MIC [13] of 1 µg/mL and an MIC [15] of 16 µg/mL. It also gave an MIC [16] of 2 µg/mL, an MIC [17] of 32 µg/mL and an MIC [18] of 1 µg/mL. For the same substance, the MIC [33] was 2 µg/mL, the MIC [19] was 0.5 µg/mL and the MIC [20] was 0.5 µg/mL. The MIC [21] was greater than 32 µg/mL, the “reversibility of binding to the ribosome” value [22] was “bind reversibly” and the MIC [23] was 2 µg/mL. For the same substance, the MIC [24] was 32 µg/mL, the MIC [25] was 2 µg/mL and the MIC [26] was 0.5 µg/mL. The MIC [27] was 2 µg/mL, the MIC [28] was 4 µg/mL and the MIC [29] was 0.5 µg/mL. For the same substance, the MIC [30] was 0.5 µg/mL, the MIC [31] was 1 µg/mL and the MIC [32] was 2 µg/mL.
For “[4S-(4alpha,12aalpha)]-9-[[[(2,2-Diethoxyethyl)amino]acetyl]amino]-4,7-bis(dimethylamino)-1,4,4a,5,5a,6,11,12a-octahydro-3,10, 12,12a-tetrahydroxy-1,11-dioxo-2-naphthacenecarboxamide dihydrochloride [Compound C]”, the MIC [1] was 0.5 µg/mL, the MIC [2] was greater than 32 µg/mL and the MIC [3] was 0.5 µg/mL. The MIC [4] was 8 µg/mL, the “% Inhibition Wild Type S30” value ([5]; Conc. 0.06 mg/ml) was 88% and the “% Inhibition Wild Type S30” value ([5]; Conc. 1.0 mg/ml) was 98%. The “inhibition of protein synthesis occuring” value [5] was “effectively inhibit protein synthesis”, the MIC [6] was 2 µg/mL and the MIC [7] was 8 µg/mL. The MIC [8] was 8 µg/mL, the MIC [9] was 8 µg/mL and the MIC [10] was 8 µg/mL. It also gave an MIC [11] of 1 µg/mL, an MIC [12] greater than 32 µg/mL and an MIC [13] of 1 µg/mL. For the same substance, the MIC [14] was 0.5 µg/mL, the MIC [15] was 8 µg/mL and the MIC [16] was 8 µg/mL. The MIC [17] was 16 µg/mL, the MIC [18] was 4 µg/mL and the MIC [33] was 16 µg/mL. It also gave an MIC [19] of 1 µg/mL, an MIC [20] of 0.5 µg/mL and an MIC [21] greater than 32 µg/mL. The “reversibility of binding to the ribosome” value [22] was “bind reversibly”, the MIC [23] was 8 µg/mL and the MIC [24] was 16 µg/mL. It also gave an MIC [25] of 4 µg/mL, an MIC [26] of 1 µg/mL and an MIC [27] of 4 µg/mL. For the same substance, the MIC [28] was 16 µg/mL, the MIC [29] was 0.25 µg/mL and the MIC [30] was 1 µg/mL. For the same substance, the MIC [31] was 1 µg/mL and the MIC [32] was 8 µg/mL.
